Measurements taken from patent US11203739B2, “Modulating cell proliferation and pluripotency” (Memorial Sloan Kettering Cancer Center, priority 2014, dated 2021).
Entries after “also recorded” stand apart in the source; their conditions may differ.

Assays:
Assay type in all cases: cell-based, mouse
ESC-1 cells [1] = test: Colony formation (self-renewal) assay with alkaline phosphatase staining; conditions: S/L medium, 4 mM, four days; for number of undifferentiated colonies: compared to S/L and the other treatment
Procedure: Self-renewal assays. ES cells free of feeder MEFs were plated at 100 cells per well in 6-well plates coated with 20 μg/mL mouse laminin (Stemgent 06-0002) in maintenance S/L medium. The following day media was changed to S/L experimental medium containing dimethyl-α-ketoglutarate (4 mM, Sigma 349631), dimethyl-succinate (4 mM, Sigma W239607) or DMSO vehicle control. Four days later cells were washed with PBS and stained for alkaline phosphatase using Vector Red Alkaline Phosphatase Kit (Vector Labs) according to manufacturer's instructions.

ESC-1 cells [2] = test: qRT-PCR gene expression of ICM and germline-associated genes; conditions: for expression of ICM and germline-associated genes: ESC-1 cells, three days
Procedure: qRT-PCR. RNA was isolated using the RNeasy kit (Qiagen). After DNase treatment, 1-2 μg RNA was used for cDNA synthesis using the First-Strand Synthesis kit (Invitrogen). Quantitative RT-PCR analysis was performed in biological triplicate using an ABI Prism 7000 (Applied Biosystems) with Platinum SYBR green.

ESC-V19 cells = test: Growth curves in glutamine-free medium; conditions: glutamine-free S/L or 2i/L media, 4 mM DM-αKG
Procedure: (§1) Cell culture. Maintenance media for ES cells were as follows: serum/LIF (S/L) maintenance medium contained Knockout DMEM (Gibco) supplemented with 15% ESC-qualified FBS (Gemini), penicillin/streptomycin (Life Technologies), 0.1 mM 2-mercaptoethanol, L-glutamine (2 mM, Life Technologies) and leukemia inhibitory factor (LIF) plated onto irradiated feeder mouse embryonic fibroblasts (MEFs); 2i/LIF maintenance conditions used a base medium made from a 1:1 mix of DMEM/F12 (Life Technologies 11302-033) and Neurobasal (Life Technologies 21103-049) containing N2 and B27 supplements (Life Technologies 17502-048 and 17504-044, 1:100 dilutions), penicillin/streptromycin, 0.1 mM 2-mercaptoethanol, L-glutamine (2 mM), LIF, CHIR99021 at 3 μM (Stemgent) and PD0325901 at 1 μM (Stemgent). Experimental media utilized for all experiments (except growth curves with and without glucose, ^13C isotope tracing experiments and ^14C labeling experiments) contained 1:1 mix of glutamine-free DMEM (Life Technologies 11960-051) and Neurobasal (Life Technologies 21103-049) with or without 2 mM glutamine. With the exception of 15% dialyzed FBS (Gemini 100-108) in S/L experimental medium, all other supplements were equivalent to maintenance media (S/L or 2i/L). […]
Growth curves. […] Cells were counted each day using a Beckman Coulter Multisizer 4.

ESC-1 cells [3] = test: Western blot of histone methylation in glutamine-free media with DM-αKG supplementation; conditions: glutamine-free S/L or 2i/L media, 24 hours
Procedure: as §1

Nanog-GFP ESCs = test: Nanog-GFP reporter FACS; conditions: S/L medium, three days
Procedure: FACS. Nanog-GFP ESCs^8 were cultured in S/L experimental medium for three passages and 2.5×10^4 cells were plated into a 6-well plate. Twenty-four hours later media was changed to S/L medium containing vehicle control or DM-AKG. Media was subsequently changed 48 hours later and cells harvested the following day. FACS analysis was performed at The Rockefeller University Flow Cytometry Resource Center using a BD LSR II. Data was generated using FlowJo. Analysis was performed on biological triplicates.

ESC-1 cells [4] = test: DNA methylation quantification (% 5mC); conditions: S/L medium, 24 hours
Procedure: DNA methylation. Genomic DNA was extracted from ESC samples using Puregene Core Kit A (Sigma). DNA methylation was measured using the colorimetric MethylFlash Methylated DNA quantification kit (Epigentek) according to manufacturer instructions.

UTX and Jmjd3 = test: Western blot of H3K27 methylation after GSK-J4 treatment; conditions: ESC-1 cells in S/L, increasing amounts of GSK-J4, 24 hours
Procedure: as §1

ESC-1 cells [5] = test: GC-MS metabolite profiling, αKG:succinate ratio; conditions: 1 μM or 5 μM, 3 hours; for αKG:succinate ratio: S/L or 2i/L medium
Procedure: Metabolite profiling. For all metabolite experiments, cells were seeded in their standard culture medium in 6-well plates and the next day were changed into experimental medium. Medium was changed again at the indicated time before harvest (usually 1-24 hours). Metabolites were extracted with 1 mL ice-cold 80% methanol supplemented with 20 μM deuterated 2-hydroxyglutarate (D-2-hydroxyglutaric-2,3,3,4,4-d5 acid, d5-2HG) as an internal standard. After overnight incubation at −80° C., lysates were harvested and centrifuged at 21,000 g for 20 minutes to remove protein. Extracts were dried in an evaporator (Genevac EZ-2 Elite) and resuspended by incubation at 30° C. for 2 hours in 50 μL of 40 mg/mL methoxyamine hydrochloride in pyridine. Metabolites were further derivatized by addition of 80 μL of MSTFA +1% TCMS (Thermo Scientific) and 70 μl ethyl acetate (Sigma) and incubated at 37° C. for 30 minutes. Samples were analyzed using an Agilent 7890A GC coupled to Agilent 5975C mass selective detector. […] Peaks representing compounds of interest were extracted and integrated using MassHunter software (Agilent Technologies) and then normalized to both the internal standard (d5-2HG) peak area and protein content of duplicate samples as determined by BCA protein assay (Thermo Scientific). Ions used for quantification of metabolite levels are as follows: d5-2HG m/z 354; KG, m/z 304; aspartate, m/z 334; citrate, m/z 465; glutamate, m/z 363; malate, m/z 335 and succinate, m/z 247. […] Enrichment of ^13C was assessed by quantifying the abundance of the following ions: αKG, m/z 304-315; aspartate, m/z 334-346; citrate, m/z 465-482; glutamate, m/z 363-377 and malate, m/z 335-347. […] Flux was calculated as the product of the first order rate constant of the kinetic labeling curve and relative metabolite pool size (normalized to mean S/L values for each experiment)^5. The flux from glucose- and glutamine-derived carbons was calculated for each of three independent experiments and the average total flux for each metabolite was shown.

UTX/Jmjd3 = test: H3K27me3 ChIP-PCR at bivalent domain promoters; conditions: 30 μM, five hours
Procedure: Chromatin immunoprecipitation. Native ChIP assays (histones) were performed with approximately 6×10^6 ESCs per experiment. Cells were subject to hypotonic lysis and treated with micrococcal nuclease to recover mono- to tri-nucleosomes. Nuclei were lysed by brief sonication and dialyzed into N-ChIP buffer (10 mM Tris pH 7.6, 1 mM EDTA, 0.1% SDS, 0.1% Na-Deoxycholate, 1% Triton X-100) for 2 hr at 4° C. Soluble material was incubated overnight at 4° C. following addition of 3-5 μg of antibody bound to 75 μL protein A Dynal magnetic beads (Invitrogen), with 5% kept as input DNA. Magnetic beads were washed, chromatin was eluted, and ChIP DNA was dissolved in 10 mM Tris pH 8 for quantitative PCR reactions (see below).
ChIP-qPCR. Primers are listed below. All qPCR was performed using an Applied Biosystems StepOnePlus system and Power SYBR Green PCR master mix. ChIP samples were diluted 1:100 in H2O and 5 μL used per reaction. ChIP-qPCR signals were calculated as percent input.

Q: What does the source list for `COC(=O)CCC(=O)OC` [DM-succinate, dimethyl-succinate]?
A: predominant colony types (ESC-1 cells [1]): either mixed or differentiated; number of undifferentiated colonies (ESC-1 cells [1]): reproducible trend of fewer undifferentiated and more differentiated colonies; expression of ICM and germline-associated genes (ESC-1 cells [2]): not

Q: `COC(=O)CCC(=O)C(=O)OC` [DM-αKG, dimethyl-α-ketoglutarate] was tested. Which glutamine-independent proliferation (ESC-V19 cells) did it give?
A: The glutamine-independent proliferation was “sufficient to enable glutamine-independent proliferation in both S/L and 2i/L conditions”.

Q: What about the “colony staining and morphology (brightfield images)” value (ESC-1 cells [1]) of the same compound?
A: The value was “stained brighter and retained a more compact colony morphology”.

Q: What about the “number of undifferentiated colonies” value (ESC-1 cells [1]) of the same compound?
A: Its value is “more than double the number of fully undifferentiated colonies; also recorded: more undifferentiated colonies than vehicle or DM-succinate treated wells”.

Q: What about the “H3K27me3 and H4K20me3 levels (Western blot)” value (ESC-1 cells [3]) of the same compound?
A: Its value is “reversed the increase in H3K27me3 and H4K20me3”.

Q: What about the “effects on gene expression in Tet1/Tet2 double knockout ES cells” value (ESC-1 cells [2]; 72 hours) of the same compound?
A: The value was “largely abrogated in Tet1/Tet2 double knockout ES cells”.

Q: And the “expression of ICM and germline-associated genes” value (ESC-1 cells [2])?
A: The value was “induced expression of ICM and germline-associated genes”.

Q: And the “effects on gene expression upon extended passaging” value (ESC-1 cells [2]; S/L medium, 24 hours or four passages)?
A: The value was “persisted upon extended passaging”.

Q: What about the “Nanog expression detected by GFP fluorescence” value (Nanog-GFP ESCs) of the same compound?
A: Its value is “sufficient to enhance Nanog expression in a dose-dependent manner”.

Q: And the “total DNA methylation (% 5mC)” value (ESC-1 cells [4])?
A: The value was “reduced”.

Q: How did the “H3K27me1 level (Western blot)” value (UTX and Jmjd3) turn out when `CCOC(=O)CCNc1cc(N2CCc3ccccc3CC2)nc(-c2ccccn2)n1` [GSK-J4] was run?
A: The value was “concomitant reduction of H3K27me1”.

Q: What about the “H3K27me3 level (Western blot)” value (UTX and Jmjd3) of the same compound?
A: The value was “dose-dependent increase in H3K27me3”.

Q: And the “absolute and relative increase in the αKG:succinate ratio, 2i/L compared with S/L” value (ESC-1 cells [5])?
A: The value was “more pronounced in the cells grown in 2i/L medium”.

Q: And the “αKG:succinate ratio” value (ESC-1 cells [5])?
A: Its value is “triggered increases in the αKG:succinate ratio”.

Q: What about the “H3K27me3 at bivalent domain promoters” value (UTX/Jmjd3; ESC-1 cells in 2i/L medium) of the same compound?
A: Its value is “consistent increase in H3K27me3 at bivalent domain promoters”.

Q: What about the “H3K27me3 at bivalent domain promoters” value (UTX/Jmjd3; ESC-1 cells in S/L medium) of the same compound?
A: The value was “did not change”.

Q: With `CCOC(=O)CCNc1cc(N2CCc3ccccc3CC2)nc(-c2cccnc2)n1` [GSK-J5] as the compound, how does the “αKG:succinate ratio” value (ESC-1 cells [5]) read?
A: Its value is “had no effect”.
